Results: patent publication US9765092B2, “Tricyclic piperidine compounds” (ACTELION PHARMACEUTICALS LTD, priority 2013, dated 2017)

Target: human TPH1 (Homo sapiens (Human), UniProt P17752)
Test: Biochemical in vitro assay using fluorescence readout (TPH1 inhibition)
[1] = human TPH1, fluorescence readout

human TPH1, sequence (P17752 whole entry): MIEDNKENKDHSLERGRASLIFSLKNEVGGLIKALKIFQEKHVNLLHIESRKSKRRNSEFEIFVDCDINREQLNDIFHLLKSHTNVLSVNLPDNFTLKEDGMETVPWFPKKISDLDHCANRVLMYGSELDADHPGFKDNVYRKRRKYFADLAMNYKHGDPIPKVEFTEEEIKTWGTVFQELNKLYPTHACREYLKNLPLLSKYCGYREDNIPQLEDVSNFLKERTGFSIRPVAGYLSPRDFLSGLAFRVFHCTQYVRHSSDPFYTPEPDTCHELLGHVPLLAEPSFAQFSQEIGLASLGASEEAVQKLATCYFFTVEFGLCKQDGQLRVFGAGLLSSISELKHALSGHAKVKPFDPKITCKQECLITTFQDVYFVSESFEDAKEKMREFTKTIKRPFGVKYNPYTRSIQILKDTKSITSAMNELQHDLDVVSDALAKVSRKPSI

Compound	IC50 [1] [nM]	IC50 (full length human TPH1, 40 μM L-tryptophan, 15° C., 60 minutes, fluorescence at 540 nm, mean if determined several times) [nM]
Cc1ccc([C@H]2c3c(nc4sc(C)nn34)CCN2C(=O)COc2ccc(NS(C)(=O)=O)nc2Cl)c(F)c1 [Example 1.53.4]	8	–
Cc1nn2c3c(nc2s1)CCN(C(=O)COc1ccc(C(=O)N(C)C)nc1Cl)C3c1ccc(OC(F)F)cc1F (stereo not shown) [Example 1.54.1, 6-chloro-5-(2-(5-(4-(difluoromethoxy)-2-fluorophenyl)-2-methyl-7,8-dihydro-[1,3,4]thiadiazolo[2′,3′:2,3]imidazo[4,5-c]pyridin-6(5H)-yl)-2-oxoethoxy)-N,N-dimethylpicolinamide]	14	–
Cc1nn2c3c(nc2s1)CCN(C(=O)COc1ccc(C(=O)N(C)C)nc1Cl)C3c1ccc(F)cc1F (stereo not shown) [Example 1.55.1, 6-chloro-5-(2-(5-(2,4-difluorophenyl)-2-methyl-7,8-dihydro-[1,3,4]thiadiazolo[2′,3′:2,3]imidazo[4,5-c]pyridin-6(5H)-yl)-2-oxoethoxy)-N,N-dimethylpicolinamide]	19	–
Cc1nn2c3c(nc2s1)CCN(C(=O)COc1ccc(C(=O)N(C)C)nc1Cl)C3c1ccc(C(F)(F)F)cc1F (stereo not shown) [Example 1.56.1, 6-chloro-5-(2-(5-(2-fluoro-4-(trifluoromethyl)phenyl)-2-methyl-7,8-dihydro-[1,3,4]thiadiazolo[2′,3′:2,3]imidazo[4,5-c]pyridin-6(5H)-yl)-2-oxoethoxy)-N,N-dimethylpicolinamide]	15	–
Cc1nn2c3c(nc2s1)CCN(C(=O)COc1ccc(C(=O)N(C)C)nc1Cl)C3c1cc(F)ccc1F (stereo not shown) [Example 1.57.1, 6-chloro-5-(2-(5-(2,5-difluorophenyl)-2-methyl-7,8-dihydro-[1,3,4]thiadiazolo[2′,3′:2,3]imidazo[4,5-c]pyridine-6(5H)-yl)-2-oxoethoxy)-N,N-dimethylpicolinamide]	30	–
Cc1nn2c3c(nc2s1)CCN(C(=O)COc1ccc(C(=O)N(C)C)nc1Cl)C3c1cccc(Cl)c1F (stereo not shown) [Example 1.58.1, 6-chloro-5-(2-(5-(3-chloro-2-fluorophenyl)-2-methyl-7,8-dihydro-[1,3,4]thiadiazolo[2′,3′:2,3]imidazo[4,5-c]pyridin-6(5H)-yl)-2-oxoethoxy)-N,N-dimethylpicolinamide]	42	–
Cc1ncc(C2c3c(nc4sc(C)nn34)CCN2C(=O)COc2ccc(C(=O)N(C)C)nc2Cl)s1 (stereo not shown) [Example 1.59.1, 6-chloro-N,N-dimethyl-5-(2-(2-methyl-5-(2-methylthiazol-5-yl)-7,8-dihydro-[1,3,4]thiadiazolo[2′,3′:2,3]imidazo[4,5-c]pyridin-6(5H)-yl)-2-oxoethoxy)picolinamide]	37	–
Cc1nn2c3c(nc2s1)CCN(C(=O)COc1ccc(C(=O)N(C)C)nc1Cl)C3c1cnc(-c2ccccc2)s1 (stereo not shown) [Example 1.60.1, 6-chloro-N,N-dimethyl-5-(2-(2-methyl-5-(2-phenylthiazol-5-yl)-7,8-dihydro-[1,3,4]thiadiazolo[2′,3′:2,3]imidazo[4,5-c]pyridin-6(5H)-yl)-2-oxoethoxy)picolinamide]	14	–
Cc1nn2c3c(nc2s1)CCN(C(=O)COc1ccc(C(=O)N(C)C)nc1Cl)C3c1ccc(C)c(F)c1F (stereo not shown) [Example 1.61.1, 6-chloro-5-(2-(5-(2,3-difluoro-4-methylphenyl)-2-methyl-7,8-dihydro-[1,3,4]thiadiazolo[2′,3′:2,3]imidazo[4,5-c]pyridin-6(5H)-yl)-2-oxoethoxy)-N,N-dimethylpicolinamide]	7	–
Cc1nn2c3c(nc2s1)CCN(C(=O)COc1ccc(NS(C)(=O)=O)nc1Cl)C3c1ccc(C)c(F)c1F (stereo not shown) [Example 1.61.2, N-(6-chloro-5-(2-(5-(2,3-difluoro-4-methylphenyl)-2-methyl-7,8-dihydro-[1,3,4]thiadiazolo[2′,3′:2,3]imidazo-[4,5-c]pyridin-6(5H)-yl)-2-oxoethoxy)pyridin-2-yl)methanesulfonamide]	34	–
CCc1nc(Cl)ncc1OCC(=O)N1CCc2nc3sc(C)nn3c2C1c1ccc(C)c(F)c1F (stereo not shown) [Example 1.61.4, 2-((2-chloro-4-ethylpyrimidin-5-yl)oxy)-1-(5-(2,3-difluoro-4-methylphenyl)-2-methyl-7,8-dihydro-[1,3,4]thiadiazolo[2′,3′:2,3]imidazo[4,5-c]pyridin-6(5H)-yl)ethanone]	49	–
CCc1nc(NS(C)(=O)=O)ccc1OCC(=O)N1CCc2nc3sc(C)nn3c2C1c1ccc(C)c(F)c1F (stereo not shown) [Example 1.61.5, N-(5-(2-(5-(2,3-difluoro-4-methylphenyl)-2-methyl-7,8-dihydro-[1,3,4]thiadiazolo[2′,3′:2,3]imidazo[4,5-c]pyridin-6(5H)-yl)-2-oxoethoxy)-6-ethylpyridin-2-yl)methanesulfonamide]	9	–
Cc1nn2c3c(nc2s1)CCN(C(=O)COc1ccc(C(=O)N(C)C)nc1Cl)C3c1cccc(F)c1F (stereo not shown) [Example 1.62.1, 6-chloro-5-(2-(5-(2,3-difluorophenyl)-2-methyl-7,8-dihydro-[1,3,4]thiadiazolo[2′,3′:2,3]imidazo[4,5-c]pyridin-6(5H)-yl)-2-oxoethoxy)-N,N-dimethylpicolinamide]	65	–
Cc1nn2c3c(nc2s1)CCN(C(=O)COc1ccc(N2CCOCC2)nc1Cl)C3c1cc(-c2nn[nH]n2)cs1 (stereo not shown) [Example 1.63.1, 1-(5-(4-(2H-Tetrazol-5-yl)thiophen-2-yl)-2-methyl-7,8-dihydro-[1,3,4]-thiadiazolo-[2′,3′:2,3]imidazo[4,5-c]pyridin-6(5H)-yl)-2-((2-chloro-6-morpholinopyridin-3-yl)oxy)ethanone]	–	23
CCN(CC)C(=O)c1cc(F)c(C2c3c(nc4sc(C)nn34)CCN2C(=O)COc2ccc(NS(C)(=O)=O)nc2Cl)s1 (stereo not shown) [Example 1.64.1, 5-(6-(2-((2-chloro-6-(methylsulfonamido)pyridin-3-yl)oxy)acetyl)-2-methyl-5,6,7,8-tetrahydro-[1,3,4]thiadiazolo [2′,3′:2,3]imidazo[4,5-c]pyridin-5-yl)-N,N-diethyl-4-fluorothiophene-2-carboxamide]	21	–
COC1(c2cnc(C3c4c(nc5sc(C)nn45)CCN3C(=O)COc3ccc(N4CCOCC4)nc3Cl)s2)COC1 (stereo not shown) [Example 1.65.1, 2-((2-chloro-6-morpholinopyridin-3-yl)oxy)-1-(5-(5-(3-methoxyoxetan-3-yl)thiazol-2-yl)-2-methyl-7,8-dihydro-[1,3,4]thiadiazolo[2′,3′:2,3]imidazo[4,5-c]pyridin-6(5H)-yl)ethanone]	208	–
Cc1nc(C)c(C2c3c(nc4sc(C)nn34)CCN2C(=O)COc2ccc(N3CCOCC3)nc2Cl)o1 (stereo not shown) [Example 1.66.1, 2-((2-chloro-6-morpholinopyridin-3-yl)oxy)-1-(5-(2,4-dimethyloxazol-5-yl)-2-methyl-7,8-dihydro-[1,3,4]thiadiazolo [2′,3′:2,3]imidazo[4,5-c]pyridin-6(5H)-yl)ethanone]	13	–
Cc1nc(C2c3c(nc4sc(C)nn34)CCN2C(=O)COc2ccc(N3CCOCC3)nc2Cl)c(C)o1 (stereo not shown) [Example 1.67.1, 2-((2-chloro-6-morpholinopyridin-3-yl)oxy)-1-(5-(2,5-dimethyloxazol-4-yl)-2-methyl-7,8-dihydro-[1,3,4]thiadiazolo [2′,3′:2,3]imidazo[4,5-c]pyridin-6(5H)-yl)ethanone]	25	–
Cc1nc(C)c(C2c3c(nc4sc(C)nn34)CCN2C(=O)COc2ccc(NS(C)(=O)=O)nc2Cl)s1 (stereo not shown) [Example 1.68.2, N-(6-chloro-5-(2-(5-(2,4-dimethylthiazol-5-yl)-2-methyl-7,8-dihydro-[1,3,4]thiadiazolo[2′,3′:2,3]imidazo[4,5-c]pyridin-6(5H)-yl)-2-oxoethoxy)pyridin-2-yl)methanesulfonamide]	9	–
Cc1nc(C)c(C2c3c(nc4sc(C)nn34)CCN2C(=O)COc2ccc(-c3ncco3)nc2Cl)s1 (stereo not shown) [Example 1.68.3, 2-((2-chloro-6-(oxazol-2-yl)pyridin-3-yl)oxy)-1-(5-(2,4-dimethylthiazol-5-yl)-2-methyl-7,8-dihydro-[1,3,4]thiadiazolo[2′,3′:2,3]imidazo[4,5-c]pyridin-6(5H)-yl)ethanone]	9	–
Cc1nc(C)c(C2c3c(nc4sc(C)nn34)CCN2C(=O)COc2ccc(C(=O)N(C)C3CC3)nc2Cl)s1 (stereo not shown) [Example 1.68.4, 6-chloro-N-cyclopropyl-5-(2-(5-(2,4-dimethylthiazol-5-yl)-2-methyl-7,8-dihydro-[1,3,4]thiadiazolo[2′,3′:2,3]imidazo[4,5-c]pyridin-6(5H)-yl)-2-oxoethoxy)-N-methylpicolinamide]	19	–
Cc1nc(C)c(C2c3c(nc4sc(C)nn34)CCN2C(=O)COc2ccc(N3CCCS3(=O)=O)nc2Cl)s1 (stereo not shown) [Example 1.68.5, 2-((2-chloro-6-(1,1-dioxidoisothiazolidin-2-yl)pyridin-3-yl)oxy)-1-(5-(2,4-dimethylthiazol-5-yl)-2-methyl-7,8-dihydro-[1,3,4]thiadiazolo[2′,3′:2,3]imidazo[4,5-c]pyridin-6(5H)-yl)ethanone]	5	–
Cc1nc(C)c(C2c3c(nc4sc(C)nn34)CCN2C(=O)COc2ccc(N(C)S(C)(=O)=O)nc2Cl)s1 (stereo not shown) [Example 1.68.6, N-(6-chloro-5-(2-(5-(2,4-dimethylthiazol-5-yl)-2-methyl-7,8-dihydro-[1,3,4]thiadiazolo[2′,3′:2,3]imidazo[4,5-c]-pyridin-6(5H)-yl)-2-oxoethoxy)pyridin-2-yl)-N-methylmethanesulfonamide]	6	–
CCc1nc(NS(C)(=O)=O)ccc1OCC(=O)N1CCc2nc3sc(C)nn3c2C1c1sc(C)nc1C (stereo not shown) [Example 1.68.7, N-(5-(2-(5-(2,4-dimethylthiazol-5-yl)-2-methyl-7,8-dihydro-[1,3,4]thiadiazolo[2′,3′:2,3]imidazo[4,5-c]-pyridin-6(5H)-yl)-2-oxoethoxy)-6-ethylpyridin-2-yl)methanesulfonamide]	11	–
CCc1nc(N2CCCS2(=O)=O)ccc1OCC(=O)N1CCc2nc3sc(C)nn3c2[C@@H]1c1sc(C)nc1C [Example 1.68.8, (R)-1-(5-(2,4-dimethylthiazol-5-yl)-2-methyl-7,8-dihydro-[1,3,4]thiadiazolo[2′,3′:2,3]imidazo[4,5-c]pyridin-6(5H)-yl)-2-((6-(1,1-dioxidoisothiazolidin-2-yl)-2-ethylpyridin-3-yl)oxy)ethanone]	5	–
